Reference: patent US12325685B2, “RXR agonist salt form, polymorphs thereof, and uses thereof” (Io Therapeutics, Inc., priority 2022, dated 2025)
In brackets after ≈: the same amount, converted by molar mass.

Legend:
[1] = Kinetic solubility at 37° C. in water and three biorelevant media; format: physicochemical
Experimental: Example 7: Kinetic Solubility. Kinetic solubility measurements were conducted on Compound 1 (a free acid) and Form A Tris salt of Compound 1 at 37° C. in water and three biorelevant media: synthetic gastric fluid; fed synthetic small intestinal fluid; and fasting synthetic small intestinal fluid.

[2] = Approximate (thermodynamic) solubility in solvents at room temperature; format: physicochemical; settings: for solubility: organic solvent or mixture, thermodynamic from solid
[3] = Fasting Synthetic Small Intestinal Fluid, 37° C., 1 Hr
[4] = Fasting Synthetic Small Intestinal Fluid, 37° C., 4 Hrs
[5] = Fasting Synthetic Small Intestinal Fluid, 37° C., 24 Hrs
[6] = Fed Synthetic Small Intestinal Fluid, 37° C., 1 Hr
[7] = Fed Synthetic Small Intestinal Fluid, 37° C., 4 Hrs
[8] = Fed Synthetic Small Intestinal Fluid, 37° C., 24 Hrs
[9] = Synthetic Gastric Fluid, 37° C., 1 Hr
[10] = Synthetic Gastric Fluid, 37° C., 4 Hrs
[11] = Synthetic Gastric Fluid, 37° C., 24 Hrs

Row | SMILES | Observed kinetic aqueous solubility S [1, 3] [µg/mL] | pH [1, 3] | Observed kinetic aqueous solubility S [1, 4] [µg/mL] | pH [1, 4] | Observed kinetic aqueous solubility S [1, 5] [µg/mL] | pH [1, 5] | Observed kinetic aqueous solubility S [1, 6] [µg/mL] | pH [1, 6] | Observed kinetic aqueous solubility S [1, 7] [µg/mL] | pH [1, 7] | pH [1, 8] | pH [1, 9] | pH [1, 10] | pH [1, 11] | Observed kinetic aqueous solubility S ([1]; Water, 37° C., 1 Hr) [µg/mL] | pH ([1]; Water, 37° C., 1 Hr) | Observed kinetic aqueous solubility S ([1]; Water, 37° C., 4 Hrs) [µg/mL] | pH ([1]; Water, 37° C., 4 Hrs) | Observed kinetic aqueous solubility S ([1]; Water, 37° C., 24 Hrs) [µg/mL] | pH ([1]; Water, 37° C., 24 Hrs) | also measured
1 | CC(/C=C/[C@@H]1C[C@]1(C)c1ccc2c(c1)C(C)(C)CCC2(C)C)=C\C(=O)O [Compound 1, (2E,4E)-3-methyl-5-((1 S,2S)-2-methyl-2-(5,5,8,8-tetramethyl-5,6,7,8-tetrahydronaphthalen-2-yl)cyclopropyl)penta-2,4-dienoic acid] | 50 | 6.48 | 60 | 6.88 | 40 | 7.50 | 100 | 5.09 | 100 | 5.17 | 5.21 | 1.67 | 1.78 | 1.92 | 30 | 7.78 | 30 | 7.83 | 10 | 8.33 | Observed kinetic aqueous solubility S [1, 8]: 440 µg/mL; kinetic solubility in synthetic gastric fluid (in words) ([1]; synthetic gastric fluid): poor or undetectable; solubility kinetic at 4 h ([1]; synthetic gastric fluid, 37 °C, simulated gastric fluid, thermodynamic from solid, Synthetic Gastric Fluid, 37° C., 4 Hrs, ND = No Detectable signal by HPLC, read-out: Observed kinetic aqueous solubility S): 20 µg/mL (≈ 0.0567 mM); Approximate Solubility ([2]; 2-Butanol, listed as Compound 1 (Free Acid)): 108900 to 140000 µg/mL; Approximate Solubility ([2]; Isopropanol, listed as Compound 1 (Free Acid)): 71800 to 87800 µg/mL; Approximate Solubility ([2]; Water, listed as Compound 1 (Free Acid)): 30 µg/mL; solubility ([2]; ethanol): 74900 to 91500 µg/mL (≈ 212 to 260 mM); solubility ([2]; methanol): 57400 to 73100 µg/mL (≈ 163 to 207 mM)
2 | CC(/C=C/[C@@H]1C[C@]1(C)c1ccc2c(c1)C(C)(C)CCC2(C)C)=C\C(=O)O [Tris Form A] | 740 | 6.93 | 830 | 7.83 | 860 | 9.37 | 2540 | 5.91 | 410 | 6.84 | 7.33 | 1.76 | 1.96 | 2.12 | 290 | 2.68 | 170 | 3.21 | 140 | 9.3 | solubility kinetic at 24 h ([1]; fed synthetic small intestinal fluid, 37 °C, fessif, thermodynamic from solid, Fed Synthetic Small Intestinal Fluid, 37° C., 24 Hrs, read-out: Observed kinetic aqueous solubility S): 340 µg/mL (≈ 0.964 mM); kinetic aqueous solubility compared to Compound 1 ([1]; relative to free acid, see Table 1): approximately an order of magnitude, or more; kinetic solubility in synthetic gastric fluid (in words) ([1]; synthetic gastric fluid): poor or undetectable; Approximate Solubility ([2]; 2-Butanol, listed as TRIS salt Form A): >15000 µg/mL; Approximate Solubility ([2]; Ethanol, listed as TRIS salt Form A): >40000 µg/mL; Approximate Solubility ([2]; Isopropanol, listed as TRIS salt Form A): 8830 to 10600 µg/mL; Approximate Solubility ([2]; Methanol, listed as TRIS salt Form A): >88000 µg/mL; Approximate Solubility ([2]; Water, listed as TRIS salt Form A): 290 µg/mL
